Measured values reported in patent publication US7449495B2, “Retinoid derivatives with antiangiogenic, antitumoral and proapoptotic activities” (Sigma-Tau Industrie Farmaceutiche Riunite S.p.A., priority 2001, dated 2008).

Tests used:
[1] = system: no small cell lung carcinoma A431; assay: Cytotoxicity test (sulphorodamine B), A431; type: cell-based; settings: Homo sapiens, A-431, 24 h incubation, survival 48 h after removal
From the text: (§1) Different cell lines deriving from solid tumors were also used. • 1. Human prostate carcinoma PC3 and DU145. These cell lines were maintained in RPMI 1640 medium containing 10% FCS, 1% sodium pyruvate and 1% glutamine; • 2. Human colon adenocarcinoma LoVo. This cell line was maintained in HAM's F-12 medium, containing 10% FCS and 1% glutamine. • 3. Human ovarian carcinoma such as A2780 and A2780/Dx, sensitive and resistant to drugs, respectively (doxorubicin, taxol, etoposide, vincristine); IGROV-1 and IGROV-1/Pt, sensitive and resistant to platinum-based chemotherapy, respectively, were maintained in RPMI 1640 medium containing 10% FCS, 1% sodium pyruvate and 1% glutamine; • 4. Human melanoma MeWo and MeS 2.21, glioblastoma GBM, no small cell lung carcinomas A431, NCI—H460, osteosarcomas SAOS and U2OS were maintained in RPMI 1640 medium containing 10% FCS, 1% sodium pyruvate and 1% glutamine.
(§2) The cytotoxicity tests were carried out using NB4 or HL-60 cells in suspension (10000/well). The cells were seeded in a volume of 250 μl in 96 well plates and incubated for 24 hours at 37° C. […] The optical density was measured using a Multiskan spectrophotometer at 540 nm. […]
(§3) Cell survival was determined by incubation with ST1926 for 24 hours, 48 hours after the removal of the compound. […]

[2] = system: Human prostate carcinoma PC3; assay: Cytotoxicity test (sulphorodamine B), PC3; type: cell-based; settings: 24 h incubation, survival 48 h after removal, read-out: IC50
From the text: as §1, §2, §3

[3] = system: osteosarcoma U2OS; assay: Cytotoxicity test (sulphorodamine B), U2OS; type: cell-based; settings: Homo sapiens, 24 h incubation, survival 48 h after removal
From the text: as §1, §2, §3

[4] = system: 3LL murine Lewis lung carcinoma; assay: Antitumoral activity in murine Lewis lung carcinoma model 3LL; type: in vivo, C57BL/6J mice; settings: 10 mg/kg po, qdx5x3w
Protocol: Murine pulmonary adenocarcinoma Madison 109 cells (M109) were maintained by s.c. passage of tumor fragments. The day of inoculation, the cell suspension was injected i.m. in the rear left limb of a 20 g male BALB/c mouse at a density of 3×10^5 cells/mouse. 3LL murine Lewis lung carcinoma was routinely maintained by i.m. passages (every 10-14 days) of 1×10^5 cells/mouse in C57BL/6J mice. For antitumor activity experiments, tumors were excised from donor mice and after mechanical desegregation and enzymatic digestion tumor cell viability was assessed by the trypan blue dye exclusion test. Then, 1×10^5 cells/100 μl/mouse were injected i.m. into the right hind leg muscle of C57BL/6J mice.
Tumor dimension measurements were performed using a digital calliper (Vernier Caliper) from the day in which the mass became measurable, twice weekly. The tumor mass was assessed from the size of the two principal dimensions (length and breadth), expressed in mm, applying the formula (length×breadth^2)/2 that is, the tumor volume in mm3. For every experimental group the percentage of inhibition of tumor volume (TVI %) was calculated, with respect to that of the control that is (100−(T/C %). TVI was evaluated 2 days after the final administration of ST1926.
The mean survival time (MST) was also measured and the increase in mean life-span expressed as ILS % (increase of life span) calculated as (MSTT/MSTC)×100−100.
The comparison between the values of TVI and of survival time, obtained for each group were performed with the non parametric Mann Whitney test for non paired data, using the Instat software from GraphPad inc. […]
The mice (8 for each group) were weighed prior to each treatment, firstly, so as to be able to administer the correct quantity of substance, based on the eventual variations in weight observed throughout the period of drug administration, and also to be able to register the maximum weight loss throughout the treatment (BWL % max).

[5] = system: Human prostate carcinoma DU145; assay: Cytotoxicity test (sulphorodamine B), DU145; type: cell-based; settings: DU-145, 24 h incubation, survival 48 h after removal
From the text: as §1, §2, §3

[6] = system: glioblastoma GBM; assay: Cytotoxicity test (sulphorodamine B), GBM; type: cell-based; settings: Homo sapiens, 24 h incubation, survival 48 h after removal
From the text: as §1, §2, §3

Compound: O=C(O)/C=C/c1ccc(-c2ccc(O)c(C34CC5CC(CC(C5)C3)C4)c2)cc1 [ST1926, E-4-(3-(1-adamantyl)-4-hydroxyphenyl)cinnamic acid]
- IC50 [1]: 250 nM
- IC50 [2]: 210 nM
- IC50 [3]: 260 nM
- BWL % Max [4]: 7%
- ILS % [4]: 52%
- MST (range days) [4]: *32 (24-42) days
- IC50 [5]: 100 nM
- IC50 [6]: 180 nM
